This note sets out measurements from patent publication US20230256017A1, “METHODS OF MAKING CHIMERIC ANTIGEN RECEPTOR-EXPRESSING CELLS” (Novartis AG, priority 2020, published 2023).

Holding throughout (type): cell-based
Assay [1] relates to T cells. Kind of assay: ARM-BCMA CAR expression kinetics in vitro with or without AZT (FACS). The note with it: 30 µM and 100 µM doses. The procedure:
In contrast to TM which measures lentiviral integration of the CAR transgene after 8-9 days, in the ARM process, the lentiviral transgene may not be fully integrated and truly expressed within 24h post lentiviral addition, as lentiviral pseudotransduction could occur (Haas DL, et al., (2000) Mol Ther; 2(1):71-80; Galla M, et al., (2004) Mol Cell; 16(2):309-15). […] Flow cytometry (FACS) analyses were performed to detect CAR surface expression at 24 h, 48 h, 72 h, 96 h and 168 h post T cell activation and transduction with the lentiviral vector. In some cases, ARM-BCMA CAR and an aliquot of this product were frozen down immediately upon harvest for additional characterization in other assays.

Assay [2] relates to T cells. Kind of assay: T cell expansion with cytokines after TCR stimulation (cell surface staining). The procedure:
Previously frozen T cells were thawed and contacted with αCD3/αCD28 dynal beads (cell to bead ratio of 1 to 3) in the presence of indicated cytokines at day 0. From day 3, twice more T cell growth media (RPMI1640, 10% FBS, 2 mM L-glutamin, 100 µM non-essential amino acids, 1 mM sodium pyruvate, 10 mM Hepes, 55 µM β-mercaptoethanol, 10% FBS, and 100 U/ml of penicillin-streptomycin) was added to the plate with indicated cytokines (without cytokine, rhIL2 (50 IU/ml, Novartis), IL6 (10 ng/ml, R&D systems), IL7 (10 ng/ml, Peprotech), IL15 (10 ng/ml, Peprotech), and IL21 (10 ng/ml, Peprotech)) at day 3, 5, 6, 9, 12, 15, and 18.
Cells were harvested at indicated time points and then stained with live/dead dye (eFluro780, eBioscience), CD3 (BioLegend, clone#: OKT3), CD4 (BioLegend, clone#: OKT4), CD8 (BD Bioscience, clone#: RPA-T8), CD45RO (BioLegend, clone#: UCHL1), CCR7 (BioLegend, clone#: G043H7), CD27 (BD Horizon, clone#: L128), CD127 (BioLegend, clone#: A019D5), CD57 (BioLegend, clone#: HCD57), CD126 (BioLegend, clon#: UV4), and CD130 (R&D Systems, clone#: 28126) antibodies. The cells were acquired by FACS Fortessa and then FlowJo program was used for data analysis.

Assay [3] has as its system T cells. Nature of the assay: Cytokine process: T cell differentiation status and CAR transduction by flow cytometry. The note with it: purified T cells incubated with cytokine, no other activation stimulus. The procedure: The cells were immunophenotyped for T cell differentiation status and transduction of the CAR was assessed using flow cytometry. The cells were washed, viability dye was added followed by the antibody cocktail (Table 20), and the plates were incubated for 20 minutes at room temperature. After the incubation, the cells were washed twice and fixed prior to being analyzed on the BD fortessa.

Consider `Cc1cn([C@H]2C[C@H](N=[N+]=[N-])[C@@H](CO)O2)c(=O)[nH]c1=O` [AZT, 3′-azido-3′-deoxythymidine], for which the “inhibition of CAR expression” value in assay [1] is “effectively inhibit CAR expression”.

On to “IL15: cytokine present during activation of T cells with αCD3αCD28 beads”, for which the “expansion of IL6Rβ expressing cells” value in assay [2] (αCD3/αCD28 beads plus cytokine) is “enhanced expansion of IL6Rβ expressing cells”. For the same molecule, the T cell expansion result in assay [2] (αCD3/αCD28 beads plus indicated cytokine) was “enhanced T cell expansion, with IL15 showing the greatest enhancement”.

For IL-15: cytokine used in T cell culture, the “maintenance of self-renewing T cells (CD45RO-CCR7+)” value in assay [3] is on record as “maintained self-renewing T cells in vitro”.
